#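 Here, GI50 denotes the concentration required for 50% inhibition of growth. At the TGI there is no net growth.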
# Key:
# Test in all cases: NCI anticancer screen, dose series, 384-well format
# [1] = test system: MDA-MB-468 breast
# [2] = test system: U251 glioblastoma
# [3] = test system: TK-10 renal
# [4] = test system: SK-MEL-28 melanoma
# [5] = test system: KM12 colon
# [6] = test system: NCI-H522 lung
# [7] = test system: NCI-H23 lung
# [8] = test system: SW-620 colon
# [9] = test system: RXF 393 renal
# [10] = test system: CCRF-CEM leukemia
# [11] = test system: HOP-62 NSCLC
# [12] = test system: SK-MEL-5 melanoma
# [13] = test system: SN12C renal
# [14] = test system: IGROV1 ovarian
# [15] = test system: SNB-19 CNS
# [16] = test system: SK-MEL-2 melanoma
# [17] = test system: BT-549 breast
# [18] = test system: NCI-H460 NSCLC
# [19] = test system: ACHN renal
# [20] = test system: A549 NSCLC
# [21] = test system: SF-268 CNS
# [22] = test system: OVCAR-3 ovarian
# [23] = test system: UACC-62 melanoma
# [24] = test system: MALME-3M melanoma
# [25] = test system: HCT-15 colon
# [26] = test system: HL-60(TB) leukemia
# [27] = test system: UACC-257 melanoma
# [28] = test system: NCI-H226 lung
# [29] = test system: MOLT-4 leukemia
# [30] = test system: CAKI-1 renal
# [31] = test system: OVCAR-4 ovarian
# [32] = test system: COLO 205 colon
# [33] = test system: MCF7 breast
# [34] = test system: RPMI-8226 leukemia
# [35] = test system: K-562 leukemia
# [36] = test system: LOX IMVI melanoma
# [37] = test system: DU-145 prostate
# [38] = test system: EKVX NSCLC
# [39] = test system: PC-3 prostate
# [40] = test system: NCI-H322M lung
# [41] = test system: MDA-MB-435 melanoma
# [42] = test system: NCI/ADR-RES ovarian
# [43] = test system: HCC-2998 colon
# [44] = test system: A498 renal
# [45] = test system: HOP-92 NSCLC
# [46] = test system: HCT-116 colon
# [47] = test system: SK-OV-3 ovarian
# [48] = test system: SNB-75 CNS
# [49] = test system: OVCAR-8 ovarian
# [50] = test system: M14 melanoma
# [51] = test system: HS 578T breast
# [52] = test system: SF-539 CNS
# [53] = test system: HT29 colon
# [54] = test system: 786-0 renal
# [55] = test system: SF-295 CNS
# [56] = test system: SR leukemia
# [57] = test system: OVCAR-5 ovarian
# [58] = test system: MDA-MB-231 breast
# [59] = test system: T-47D breast
smiles,measurement,setting,value
CC(C)NC(=O)OCc1c(COC(=O)NC(C)C)c(-c2ccc(Cl)c(Cl)c2)n2c1SCC2,GI50,[1],0.0344 µM
same,TGI,[1],0.936 µM
same,GI50,[2],5.16 µM
same,TGI,[2],18.4 µM
same,GI50,[3],1.63 µM
same,TGI,[3],6.15 µM
same,GI50,[4],12.7 µM
same,TGI,[4],26.1 µM
same,GI50,[5],7.21 µM
same,TGI,[5],21.6 µM
same,GI50,[6],2.09 µM
same,TGI,[6],13.8 µM
same,GI50,[7],1.83 µM
same,TGI,[7],4.26 µM
same,GI50,[8],5.81 µM
same,TGI,[8],19.6 µM
same,GI50,[9],2.64 µM
same,TGI,[9],10.5 µM
same,GI50,[10],2.07 µM
same,TGI,[10],4.95 µM
same,GI50,[11],1.89 µM
same,TGI,[11],4.66 µM
same,GI50,[12],4.33 µM
same,TGI,[12],17.8 µM
same,GI50,[13],3.88 µM
same,TGI,[13],14.1 µM
same,GI50,[14],1.25 µM
same,TGI,[14],4.55 µM
same,GI50,[15],9.07 µM
same,TGI,[15],27.7 µM
same,GI50,[16],1.83 µM
same,TGI,[16],4.49 µM
same,GI50,[17],3.92 µM
same,TGI,[17],15.3 µM
same,GI50,[18],2.56 µM
same,TGI,[18],11.4 µM
same,GI50,[19],2.31 µM
same,TGI,[19],7.85 µM
same,GI50,[20],10.2 µM
same,TGI,[20],23.9 µM
same,GI50,[21],3.18 µM
same,TGI,[21],10.3 µM
same,GI50,[22],2.99 µM
same,TGI,[22],14.1 µM
same,GI50,[23],1.68 µM
same,TGI,[23],4.98 µM
same,GI50,[24],5.06 µM
same,TGI,[24],17.8 µM
same,GI50,[25],5.97 µM
same,TGI,[25],19.8 µM
same,GI50,[26],1.27 µM
same,TGI,[26],2.58 µM
same,GI50,[27],10.2 µM
same,TGI,[27],22.4 µM
same,GI50,[28],0.85 µM
same,TGI,[28],2.35 µM
same,GI50,[29],1.1 µM
same,TGI,[29],2.3 µM
same,GI50,[30],1.48 µM
same,TGI,[30],3.44 µM
same,GI50,[31],3.3 µM
same,TGI,[31],17.5 µM
same,GI50,[32],8.39 µM
same,TGI,[32],21.7 µM
same,GI50,[33],4.21 µM
same,TGI,[33],27 µM
same,GI50,[34],1.79 µM
same,TGI,[34],5.03 µM
same,GI50,[35],10.3 µM
same,TGI,[35],22.6 µM
same,GI50,[36],1.84 µM
same,TGI,[36],13.6 µM
same,GI50,[37],5.54 µM
same,TGI,[37],20.7 µM
same,GI50,[38],13.1 µM
same,TGI,[38],26.7 µM
same,GI50,[39],10.8 µM
same,TGI,[39],25.5 µM
same,GI50,[40],7.6 µM
same,TGI,[40],21.7 µM
same,GI50,[41],13 µM
same,TGI,[41],25.8 µM
same,GI50,[42],3 µM
same,TGI,[42],13.2 µM
same,GI50,[43],0.687 µM
same,TGI,[43],14.7 µM
same,GI50,[44],0.386 µM
same,TGI,[44],1.76 µM
same,GI50,[45],2.58 µM
same,TGI,[45],11.4 µM
same,GI50,[46],4 µM
same,TGI,[46],19.8 µM
same,GI50,[47],3.26 µM
same,TGI,[47],11.4 µM
same,GI50,[48],2.27 µM
same,TGI,[48],12.7 µM
same,GI50,[49],5.97 µM
same,TGI,[49],19.1 µM
same,GI50,[50],3.75 µM
same,TGI,[50],14.1 µM
same,GI50,[51],4.85 µM
same,TGI,[51],17.3 µM
same,GI50,[52],5.16 µM
same,TGI,[52],18.7 µM
same,GI50,[53],10.4 µM
same,TGI,[53],25 µM
same,GI50,[54],4.31 µM
same,TGI,[54],15.8 µM
same,GI50,[55],3.18 µM
same,TGI,[55],10.1 µM
CN(C)CCN(C)CC(C)(C)C(=O)/C=C/c1ccc(Cl)cc1,GI50,[3],2.44 µM
same,TGI,[3],6.06 µM
same,GI50,[4],3.06 µM
same,TGI,[4],10.2 µM
same,GI50,[5],2.45 µM
same,TGI,[5],5.05 µM
same,GI50,[6],1.34 µM
same,TGI,[6],2.77 µM
same,GI50,[7],5.84 µM
same,TGI,[7],18.2 µM
same,GI50,[8],2.09 µM
same,TGI,[8],4.45 µM
same,GI50,[10],1.68 µM
same,TGI,[10],3.05 µM
same,GI50,[12],1.9 µM
same,TGI,[12],4.08 µM
same,GI50,[13],2.09 µM
same,TGI,[13],5.98 µM
same,GI50,[14],2.53 µM
same,TGI,[14],6.1 µM
same,GI50,[15],2.93 µM
same,TGI,[15],9.62 µM
same,GI50,[16],1.55 µM
same,TGI,[16],3.32 µM
same,GI50,[18],2.03 µM
same,TGI,[18],4.12 µM
same,GI50,[19],2.02 µM
same,TGI,[19],7.29 µM
same,GI50,[20],3.3 µM
same,TGI,[20],11.1 µM
same,GI50,[56],1.42 µM
same,TGI,[56],2.73 µM
same,GI50,[21],2.39 µM
same,TGI,[21],5.29 µM
same,GI50,[22],1.75 µM
same,TGI,[22],4.03 µM
same,GI50,[23],1.91 µM
same,TGI,[23],3.75 µM
same,GI50,[24],4.76 µM
same,TGI,[24],14.6 µM
same,GI50,[25],5.08 µM
same,TGI,[25],17.8 µM
same,GI50,[26],1.94 µM
same,TGI,[26],3.37 µM
same,GI50,[27],2.36 µM
same,TGI,[27],4.96 µM
same,GI50,[57],7.14 µM
same,TGI,[57],19.7 µM
same,GI50,[28],5.39 µM
same,TGI,[28],16.2 µM
same,GI50,[29],1.76 µM
same,TGI,[29],3.2 µM
same,GI50,[30],2.92 µM
same,TGI,[30],12 µM
same,GI50,[31],2.37 µM
same,TGI,[31],5.73 µM
same,GI50,[58],3.1 µM
same,TGI,[58],8.03 µM
same,GI50,[32],5.88 µM
same,TGI,[32],17.1 µM
same,GI50,[59],17.9 µM
same,TGI,[59],31.9 µM
same,GI50,[33],17.2 µM
same,TGI,[33],31.2 µM
same,GI50,[34],1.71 µM
same,TGI,[34],3.17 µM
same,GI50,[35],1.72 µM
same,TGI,[35],3.44 µM
same,GI50,[36],0.764 µM
same,TGI,[36],2.12 µM
same,GI50,[37],3.22 µM
same,TGI,[37],8.86 µM
same,GI50,[38],2.14 µM
same,TGI,[38],5.07 µM
same,GI50,[39],2.62 µM
same,TGI,[39],5.93 µM
same,GI50,[40],3.11 µM
same,TGI,[40],7.72 µM
same,GI50,[42],2.06 µM
same,TGI,[42],3.98 µM
same,GI50,[43],4.45 µM
same,TGI,[43],13.7 µM
same,GI50,[44],2.78 µM
same,TGI,[44],7.47 µM
same,GI50,[45],2.09 µM
same,TGI,[45],4.65 µM
same,GI50,[46],2 µM
same,TGI,[46],4.18 µM
same,GI50,[47],2.24 µM
same,TGI,[47],5.95 µM
same,GI50,[48],2.91 µM
same,TGI,[48],7.32 µM
same,GI50,[49],2.24 µM
same,TGI,[49],4.8 µM
same,GI50,[50],2.07 µM
same,TGI,[50],4.06 µM
same,GI50,[51],2.55 µM
same,TGI,[51],6.02 µM
same,GI50,[52],10.5 µM
same,TGI,[52],22.4 µM
same,GI50,[53],3.26 µM
same,TGI,[53],11.8 µM
same,GI50,[54],2.91 µM
same,TGI,[54],9.33 µM
